Source: publication PMC11876601 (Molecular Systems Biology, 2025)
Like-named read-outs stand apart in the source and are kept apart here.

Test system: p-sites in DNA-damaged AsPC-1 cells
Experiment: decryptM dose-resolved phosphoproteomics of ATRi in GEM-pre-treated cells
Assay type: cell-based, human
Conditions: for EC50: Homo sapiens, ASPC1; for PTM response (norm. to 1 µM GEM): source data 4B (p-site not named)
Procedure: Cell culture medium was replaced 24 h after seeding. […] For time point 0, AsPC-1 cells were treated with a vehicle and lysed immediately. The final DMSO concentration in all experiments was 0.2%.
Briefly, cells were washed twice with PBS and lysed in SDS lysis buffer (2% SDS in 40 mM Tris-HCl, pH 7.6), followed by sonication for 10 min (30 s on/30 s off) using a Bioruptor (Diagenode). For DNA hydrolysis, samples were boiled at 95 °C for 10 min and incubated with 2% trifluoroacetic acid (TFA) for 1 min, before the reaction was quenched using 4% N-methylmorpholine. Lysate was cleared by centrifugation at 11,000 × g for 5 min and protein concentration was determined using the Pierce BCA Protein Assay Kit (Thermo Scientific).
Using 70% ethanol, samples were then precipitated on beads, followed by washing thrice with 80% ethanol and once with 100% acetonitrile. Subsequently, proteins were reduced and alkylated using 10 mM TCEP, 50 mM chloroacetamide, and 2 mM CaCl2 in 100 mM EPPS/NaOH, pH 8.5 for 1 h at 37 °C, followed by tryptic digestion at 37 °C for 16 h. Peptides were acidified with 1% TFA and desalted on Chromabond HLB plates (30 µm particle size, 10 mg capacity, Machery-Nagel), using 0.1% TFA for equilibration and sample loading, and 0.1% TFA in 70% acetonitrile for peptide elution. Recovered peptides were freeze-dried by vacuum-centrifugation and stored at −20 °C.
Depending on the experiment, samples were either labeled with TMT-11plex (decryptM), TMT-10plex (non-decryptM, quadruplicates), or TMTpro reagent (time-series; all Thermo Scientific). Therefore, dried peptides were reconstituted in 15 µl 100 mM EPPS, pH 8.5 and each treatment condition was labeled with one channel of the respective TMT reagent (5 µl of 25 µg/µl reagent, Appendix Tables S4–S6). The reaction was incubated for 1 h at 23 °C and subsequently quenched with 0.4% hydroxylamine. Then, samples were pooled, acidified with 1% formic acid, and freeze-dried by vacuum-centrifugation. Labeled peptide pools were desalted on C18 Sep-Pak cartridges (37–55 µm particle size, 50 mg capacity, Waters), using 0.1% formic acid as equilibration solvent, and 0.1% formic acid in 60% acetonitrile was used as elution solvent. Eluted peptides were freeze-dried and stored at −20 °C until further use.
Basic reversed-phase (bRP) fractionation of peptides was performed on a Vanquish HPLC (Thermo Scientific). In short, dried peptides were reconstituted in 200 µl 25 mM ammonium bicarbonate, pH 8.0 and directly injected onto a Waters BEH130 XBridge C18 column (3.5 µm, 4.6 × 250 mm). […] Using an automated fraction collector, 96 fractions were collected between min 7 and 55 after injection. Fractions were acidified with 1% formic acid and pooled to 48 fractions, before they were freeze-dried and stored at −20 °C.
Immobilized metal ion affinity chromatography (IMAC) enrichment of phosphorylated peptides was performed on the Bravo automated liquid handling platform using AssayMAP Fe(III)-NTA cartridges (Agilent). In brief, the 48 dried peptide fractions were reconstituted in 0.1% TFA in 80% acetonitrile and further pooled to 12 fractions (200 µl final volume per well). The phosphopeptide enrichment protocol embedded in the Agilent AssayMAP Bravo Protein Sample Prep Workbench v2.0 software was run. Thereby, the cartridges were first primed with 150 μl 0.1% TFA in acetonitrile at 300 μl/min, and equilibrated with 150 μl 0.1% TFA in 80% acetonitrile at 10 μl/min. Then, pooled fractions were loaded at 5 µl/min and further washed three times with 150 μl 0.1% TFA in 80% acetonitrile at 50 μl/min. Enriched peptides were eluted with 60 μl 1% ammonium hydroxide at 5 μl/min.

Question: With `Nc1nn2cc(F)cnc2c1C(=O)Nc1cncc(F)c1N1CCC(C(=O)N2CCN(C3COC3)CC2)CC1` [Gartisertib] as the compound, how does the “Ratio TMT 9 (PTM response normalized to 1,000 nM GEM), AAAS S495” value (1,000 nM GEM + 1 nM ATRi) read?
Answer: 1.01

Question: And the “Ratio TMT 8 (PTM response normalized to 1,000 nM GEM), AAAS S495” value (1,000 nM GEM + 3 nM ATRi)?
Answer: 1.19

Question: And the “Ratio TMT 7 (PTM response normalized to 1,000 nM GEM), AAAS S495” value (1,000 nM GEM + 10 nM ATRi)?
Answer: 1.10

Question: What about the “Ratio TMT 6 (PTM response normalized to 1,000 nM GEM), AAAS S495” value (1,000 nM GEM + 30 nM ATRi) of the same compound?
Answer: 1.01

Question: What about the “Ratio TMT 5 (PTM response normalized to 1,000 nM GEM), AAAS S495” value (1,000 nM GEM + 100 nM ATRi) of the same compound?
Answer: 0.97

Question: What about the “Ratio TMT 4 (PTM response normalized to 1,000 nM GEM), AAAS S495” value (1,000 nM GEM + 300 nM ATRi) of the same compound?
Answer: 1.12

Question: What about the “Ratio TMT 3 (PTM response normalized to 1,000 nM GEM), AAAS S495” value (1,000 nM GEM + 1,000 nM ATRi) of the same compound?
Answer: 1.11

Question: And the “Ratio TMT 2 (PTM response normalized to 1,000 nM GEM), AAAS S495” value (1,000 nM GEM + 3,000 nM ATRi)?
Answer: 1.00

Question: What about the “Ratio TMT 1 (PTM response normalized to 1,000 nM GEM), AAAS S495” value (1,000 nM GEM + 10,000 nM ATRi) of the same compound?
Answer: 1.09

Question: And the “Log2 PTM response (GEM+ATRi vs. GEM)” value (AASDHPPT-pS258)?
Answer: -1.6

Question: And the “Log2 PTM response (GEM+ATRi vs. GEM)” value (BRCA1-pS1239)?
Answer: -2

Question: What about the “Log2 PTM response (GEM+ATRi vs. GEM)” value (BRD8-pS621) of the same compound?
Answer: -1.6

Question: And the “Log2 PTM response (GEM+ATRi vs. GEM)” value (CDKN2AIP-pS198)?
Answer: -1.3

Question: What about the “Log2 PTM response (GEM+ATRi vs. GEM)” value (CHEK1-pS317) of the same compound?
Answer: -2.3

Question: What about the “Log2 PTM response (GEM+ATRi vs. GEM)” value (EXO1-pS714) of the same compound?
Answer: -1.9

Question: And the “Log2 PTM response (GEM+ATRi vs. GEM)” value (FANCD2-pS319)?
Answer: -1

Question: And the “Log2 PTM response (GEM+ATRi vs. GEM)” value (HDGF-pS103)?
Answer: -1.6

Question: What about the “Log2 PTM response (GEM+ATRi vs. GEM)” value (HMGA1-pS9) of the same compound?
Answer: -2

Question: And the “Log2 PTM response (GEM+ATRi vs. GEM)” value (HMGA1-pS36;S44)?
Answer: -0.9

Question: What about the “Log2 PTM response (GEM+ATRi vs. GEM)” value (HMGA1-pS44) of the same compound?
Answer: -2.1

Question: What about the “Log2 PTM response (GEM+ATRi vs. GEM)” value (HTATSF1-pS481) of the same compound?
Answer: -1.1

Question: And the EC50 (approximate, from density plot Fig. 4C (peer review file), read-out: EC50 of the majority of pSQ/pTQ sites)?
Answer: ~10 nM

Question: What about the EC50 (approximate, from density plot Fig. 4C (peer review file), read-out: pEC50 of the majority of pSQ/pTQ sites (converted)) of the same compound?
Answer: ~10 nM

Question: And the EC50 (p-site dose-response in GEM-pre-treated cells, read-out: EC50, RALY S176)?
Answer: 1.91 nM

Question: What about the EC50 (p-site dose-response in GEM-pre-treated cells, read-out: pEC50, RALY S176 (converted)) of the same compound?
Answer: 1.91 nM

Question: What about the EC50 (read-out: median EC50 across all drug-regulated pSQ/pTQ-sites) of the same compound?
Answer: 21 nM

Question: What about the “Log2 PTM response (GEM+ATRi vs. GEM)” value (LRRC42-pS385) of the same compound?
Answer: -2.5

Question: What about the “Log2 PTM response (GEM+ATRi vs. GEM)” value (NBN-pS397) of the same compound?
Answer: -1.3

Question: What about the “Log2 PTM response (GEM+ATRi vs. GEM)” value (NBN-pS615) of the same compound?
Answer: -0.8

Question: What about the “Log2 PTM response (GEM+ATRi vs. GEM)” value (NSUN5-pS432) of the same compound?
Answer: -2.2

Question: And the “Log2 PTM response (GEM+ATRi vs. GEM)” value (PELP1-pS1033)?
Answer: -1

Question: And the “Log2 PTM response (GEM+ATRi vs. GEM)” value (PHF14-pS294)?
Answer: -1.2

Question: What about the “Log2 PTM response (GEM+ATRi vs. GEM)” value (PNISR-pS706) of the same compound?
Answer: -1.9

Question: What about the “Log2 PTM response (GEM+ATRi vs. GEM)” value (PPM1G-pS201) of the same compound?
Answer: -2.3

Question: And the “Log2 PTM response (GEM+ATRi vs. GEM)” value (PPP6R3-pS825)?
Answer: -1

Question: What about the “Log2 PTM response (GEM+ATRi vs. GEM)” value (PSMD4-pS266) of the same compound?
Answer: -1.2

Question: And the “Log2 PTM response (GEM+ATRi vs. GEM)” value (RAD18-pS368)?
Answer: -2.8

Question: What about the “Log2 PTM response (GEM+ATRi vs. GEM)” value (RIF1-pS1873) of the same compound?
Answer: -1.4

Question: And the “Log2 PTM response (GEM+ATRi vs. GEM)” value (SNRPA-pS115)?
Answer: -1

Question: And the “Log2 PTM response (GEM+ATRi vs. GEM)” value (TCEA1-pS100;S97)?
Answer: -2.6

Question: And the “Log2 PTM response (GEM+ATRi vs. GEM)” value (TCEB3-pS251)?
Answer: -1.6

Question: What about the “Log2 PTM response (GEM+ATRi vs. GEM)” value (THAP4-pS186) of the same compound?
Answer: -1.3

Question: And the “Log2 PTM response (GEM+ATRi vs. GEM)” value (TOPBP1-pS1504)?
Answer: -1.4

Question: And the “Log2 PTM response (GEM+ATRi vs. GEM)” value (TSEN34-pS136)?
Answer: -1.3

Question: What about the “Log2 PTM response (GEM+ATRi vs. GEM)” value (UHRF1-pS393) of the same compound?
Answer: -0.6

Question: What about the “Log2 PTM response (GEM+ATRi vs. GEM)” value (UIMC1-pS171) of the same compound?
Answer: -1

Question: And the “ATRi Regulation (Curve), RALY S176” value (classified by CurveCurator)?
Answer: down

Question: What about the “Curve Log2 Fold Change, RALY S176” value (fitted dose-response curve) of the same compound?
Answer: -1.45 log2

Question: What about the “PTM response (norm. to 1 µM GEM)” value (1 µM GEM + ATRi 1 nM) of the same compound?
Answer: 1.13

Question: And the “PTM response (norm. to 1 µM GEM)” value (1 µM GEM + ATRi 3 nM)?
Answer: 0.97

Question: And the “PTM response (norm. to 1 µM GEM)” value (1 µM GEM + ATRi 10 nM)?
Answer: 0.75

Question: And the “PTM response (norm. to 1 µM GEM)” value (1 µM GEM + ATRi 30 nM)?
Answer: 0.41

Question: And the “PTM response (norm. to 1 µM GEM)” value (1 µM GEM + ATRi 100 nM)?
Answer: 0.29

Question: What about the “PTM response (norm. to 1 µM GEM)” value (1 µM GEM + ATRi 300 nM) of the same compound?
Answer: 0.28

Question: And the “PTM response (norm. to 1 µM GEM)” value (1 µM GEM + ATRi 1000 nM)?
Answer: 0.21

Question: And the “PTM response (norm. to 1 µM GEM)” value (1 µM GEM + ATRi 3000 nM)?
Answer: 0.17

Question: What about the “PTM response (norm. to 1 µM GEM)” value (1 µM GEM + ATRi 10000 nM) of the same compound?
Answer: 0.19
